For 63 molecules, melting point results are on record in a melting point compilation (Tetko et al.; mined from patent text by program, amines drawn as free bases though some values may be those of a salt).

Usually melting point stands for the temperature, or range, at which the solid turns liquid. The molecule `CC(C)(C)C(NC(=O)c1cc(Cl)cc(Cl)c1)Nc1c(Nc2cccnc2Cl)c(=O)c1=O` (stereo not drawn) registered a melting point of 233 to 234 °C.

`N=C(N)N(CCCCc1ccc(OCC(=O)Nc2ccccc2)cc1)C(=O)c1nc(Cl)c(N)nc1N` had a melting point of 168 to 170 °C.

For the molecule `CC(=O)Nc1ccc(O)c(C(=O)CCC(=O)O)c1`, the melting point was in the range of 205 to 206 °C.

As to `Cc1c(F)cc(C(C)(C)C)c(O)c1-c1nc2ccc(F)cc2c(=O)[nH]1`, the melting point was in the range of 247 to 248 °C.

In turn, `CCOC(=O)Cc1ccc(-c2nc(COc3ccc(COc4nn(-c5ccccc5)cc4/C=C/c4csc(C)n4)cc3OC)c(C)o2)cc1` showed a melting point of 153 to 155 °C. The figure for `Cc1cc(NCCO)c2nn(C)c(C)c2n1` is 186 to 189 °C; for `O=C(O)Cc1ccccc1OCCCc1cn(-c2ccc(C(F)(F)F)cn2)nc1-c1ccccc1` it is 133 to 134 °C; for `OCc1ccc(-c2cccc(C(F)(F)F)c2)o1` it is 45 °C. Take `O=C1N(Cc2ccncc2)Cc2cccnc2N1c1cccc(Cl)c1`: the melting point was in the range of 132 to 134 °C. The figure for `CCOC(=O)c1nn(-c2c(Cl)cc(C(F)(F)F)cc2Cl)cc1O` is 140 to 143 °C; for `COc1ccc(-c2cnc(NC(=O)Cc3ccccc3)c(Cc3ccccc3)n2)cc1` it is 198 to 202 °C; for `Cc1cc(C2CCCCC2)ccc1C(=O)O` it is 129 to 130 °C. For `O=C1Cc2cc([N+](=O)[O-])ccc2Sc2cc(Br)ccc21`, the melting point was in the range of 242 to 245 °C. For the molecule `CNC(=O)N1N=C(c2ccc([N+](=O)[O-])cc2)c2cc(OC)c(Br)cc2CC1C` (stereo not drawn), the melting point was in the range of 224 to 226 °C. As to `CC(C)(C)c1ccc(O)c(S(=O)(=O)CCl)c1`, the melting point lay within 94 to 95 °C. The figure for `O=C(O)COc1cccc2c1CCc1sc(SC(Cc3ccccc3)c3ccccc3)nc1-2` (stereo not drawn) is 201 to 204 °C; for `CCOC(=O)C(NC(=O)c1ccc(Cl)cc1)C(=O)OCC` it is 89.5 to 90.3 °C.

With `Cc1oc(-c2ccc3ccccc3c2)nc1COc1ccc(CCCCn2cncn2)cc1`, the melting point lay within 134 to 135 °C. For `C[Si](Cn1ncnc1S)(c1ccc(F)cc1)c1ccc(F)cc1` the value was 97 to 99 °C.

In the case of `C[Si](C)(C)OC1c2cc(Br)ccc2-c2ccc(Br)cc2C1O[Si](C)(C)C` (stereo not drawn), the melting point was in the range of 144 to 145 °C.

In turn, `CC1CNC(c2n[nH]c(-c3ccc(Cl)cc3)c2-c2ccncc2)C(C)N1` (stereo not drawn) gave a melting point of 236 to 238 °C. Turning to `C/C(=C(\C#N)C(N)=S)N1CCCN(c2cccc(C)c2)CC1`, the melting point was in the range of 144 to 148 °C. The figure for `CCOc1cc2ncc(C#N)c(Nc3ccc4cn[nH]c4c3)c2cc1OCC` is 143 to 145 °C; for `CC(C)Cn1c(CNC(=O)OC(C)(C)C)c(-c2ccccc2F)c2cc(OCc3ccccc3)ccc2c1=O` it is 138 to 139 °C; for `CCNc1ccc(NC(=O)c2ccc(C)c(Nc3nccc(-c4cccnc4)n3)c2)cc1C(F)(F)F` it is 178 to 180 °C. The figure for `O=C(NC(=O)N1CCCCC1)c1cc(Cl)nc(Cl)c1` is 183 to 185 °C; for `CC1CC1n1cc(C(=O)O)c(=O)c2cc(F)c(N3CCC(N)C3)c(F)c21` (stereo not drawn) it is 267 to 275 °C. The figure for `CC(=O)OCC1OC(n2c(=O)sc3c(=O)[nH]c(N)nc32)C(OC(C)=O)C1OC(C)=O` (stereo not drawn) is 198 to 199 °C. The molecule `O=C1Nc2ccc([N+](=O)[O-])cc2C2(c3ccccc3)OCCN12` (stereo not drawn) displayed a melting point of 275 to 276 °C. For `Cn1nc(-c2c(Nc3ccccc3)nc(N)nc2-c2ccccc2)ccc1=O` the value was 252 to 254 °C; for `CC(C)(CO)[C@@H](O)C#N`, 110 °C.

The molecule `CC(C)(C)OC(=O)c1ccc(C(=O)O)cc1` yielded a melting point of 100 to 102 °C. For `CS(=O)(=O)c1ccccc1C(=O)C(C#N)C(=O)C1CC1` (stereo not drawn) the value was 155 °C; for `COC(=O)C1C(c2cccc([N+](=O)[O-])c2)C(C(=O)OC(C)C)=C(C)NC1(O)c1ccccc1` (stereo not drawn), 134 to 135 °C.

Consider `CSc1nccc(-c2c3cccnc3n3c(N)nccc23)n1`, for which the melting point lay within 223 to 224 °C.

In the case of `CC1(C)CCSc2cc(C(=O)Nc3ccc(C(=O)O)cc3)ccc21`, the melting point was in the range of 274 to 276 °C. For `CN(C)Cc1ccc(CSCCNC(=S)NC(=O)c2ccccc2)o1` the value was 83 to 85 °C; for `CCCOc1ccc(C(=O)Cn2cncn2)cc1`, 97 to 99 °C.

Molecule `CCOC(=O)NNc1cc(-c2ccc(OC)cc2)c(-c2ccc(OC)cc2)nn1` came in with a melting point of 212 to 214 °C. `CS(=O)(=O)N1CCN([C@@H](CNS(=O)(=O)c2ccc(OCc3cccc4ccccc34)cc2)C(=O)NO)CC1` showed a melting point of 148 °C. `COc1ccc(CN(C)C2CCN(c3ccc([N+](=O)[O-])cc3)CC2)cc1` had a melting point of 144 to 145 °C. For `CN1CC[C@]2(c3ccccc3)CCCC[C@@]2(O)C1` (relative stereo) the value was 84 to 87 °C; for `O=C(NCCSCCNC(=O)c1cccc(Cl)c1)c1cccc(Cl)c1`, 150 to 152 °C. For `CC(NC(=O)Cc1cc(F)cc(F)c1)C(=O)NC1C(=O)N(Cc2ccccc2)Cc2ccccc21` (stereo not drawn) the value was 144 to 145 °C; for `N#CCc1cc2cc(Br)ccc2s1`, 94 to 96 °C; for `CC1=CC(OC(=O)c2cccn2C)C(O)C(C)(C)CC1=O` (stereo not drawn), 141 to 142 °C.

`CCOC(=O)C(=Cc1cccn2cc(C(C)C)nc12)N=[N+]=[N-]` gave a melting point of 66 to 68 °C.

For `COc1ccc(-n2cc(C)cc2-c2ccc(S(N)(=O)=O)cc2)cc1`, the melting point lay within 63 to 64 °C.

With `Cn1c(COc2ccc(CC3SC(=O)NC3=O)cc2)nc2ccc(Oc3ccc(O)cc3)cc21` (stereo not drawn), the melting point was in the range of 126 to 131 °C. In turn, `CN(Cc1ccccc1)C1Cc2cccc3[nH]c(=O)n(c23)C1` (stereo not drawn) gave a melting point of 145 to 149 °C. `CC(C)(C)c1nc(-c2ccc3ccccc3c2)c(-c2ccncc2)[nH]1` displayed a melting point of 218 to 220 °C.

As to `Oc1ccc2ccc(OCc3ccc4ccccc4n3)cc2c1`, the melting point was 218 to 220 °C.

In turn, `O=C(O)Cc1cc2c(cc1Cc1ccccc1)OCO2` yielded a melting point of 116 to 117 °C. For `COc1cc2c(c(OC)c1/C=C/c1ccc(COC(C)=O)cc1)C(C)(C)CCC2(C)C` the value was 73 to 74 °C; for `CCOC(=O)c1ccc(-c2csc(-c3ccccc3)n2)cc1`, 72 to 73 °C. For `CC(C)(C)c1ccc2nc(N3CCN(c4ncccc4C(F)(F)F)CC3)[nH]c2c1` the value was 247 to 249 °C.

As to `COC(=O)c1cc(=O)c2cc(OC)c(=O)ccc2n1C`, the melting point was in the range of 181 to 183 °C.

In the case of `CCC(COC)Nc1nc(C)nc(Cl)c1N` (stereo not drawn), the melting point lay within 128 to 130 °C. `CC(C)(C)OC(=O)CCCCCCCCCC[N+](=O)[O-]`: the melting point is 39 to 42 °C. For `Cc1cnc2c(S(=O)(=O)Cl)cccc2c1` the value was 158 to 159 °C; for `CCOC(=O)CC(O)CP(=O)(OCC)OCC` (stereo not drawn), 33 to 35 °C. For `Cc1ccccc1Sc1cccc2c1OC(=O)C2`, the melting point was 108 to 109 °C. Consider `Cc1cc(NC(N)=O)cc(C)c1NC(=O)CN1CCN(CCCC(c2ccc(F)cc2)c2ccc(F)cc2)C(C(N)=O)C1` (stereo not drawn), for which the melting point stood at 142 °C.
